In PubChem BioAssay AID328 (DTP/NCI, 2004):
“And” between values parts separate entries of the source, which are not always exact repeats. Identical values can stand only once. Toxic doses and inconclusive results are not listed.

System: BDF1 mice, P388 leukemia ip, median survival T/C
Test: NCI In Vivo Anticancer Drug Screen. Data for tumor model P388 Leukemia (intraperitoneal) in B6D2F1 (BDF1) mice
Details: endpoint: median survival time, higher = longer survival
How it was run: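 Steps: implant the tumour, treat one group with compound and another with vehicle, record survival, then divide treated by control.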

[1] = dose: 100.0 mg/kg/injection, schedule: Q01DX009 (ip), vehicle: saline with Tween-80
[2] = dose: 200.0 mg/kg/injection, schedule: Q01DX009 (ip), vehicle: saline with Tween-80
[3] = dose: 25.0 mg/kg/injection, schedule: Q01DX009 (ip), vehicle: Klucel (hydroxypropylcellulose) (HPC)
[4] = dose: 100.0 mg/kg/injection, schedule: Q01DX009 (ip), vehicle: Klucel (hydroxypropylcellulose) (HPC)
[5] = dose: 50.0 mg/kg/injection, schedule: Q01DX009 (ip), vehicle: other
[6] = dose: 100.0 mg/kg/injection, schedule: Q04DX003 (ip), vehicle: other
[7] = dose: 100.0 mg/kg/injection, schedule: Q04DX003 (ip), vehicle: Klucel (hydroxypropylcellulose) (HPC)
[8] = dose: 200.0 mg/kg/injection, schedule: Q04DX003 (ip), vehicle: Klucel (hydroxypropylcellulose) (HPC)
[9] = dose: 400.0 mg/kg/injection, schedule: Q04DX003 (ip), vehicle: Klucel (hydroxypropylcellulose) (HPC)
[10] = dose: 50.0 mg/kg/injection, schedule: Q01DX009 (ip), vehicle: saline with Tween-80
[11] = dose: 25.0 mg/kg/injection, schedule: Q04DX003 (ip), vehicle: saline
[12] = dose: 50.0 mg/kg/injection, schedule: Q01DX009 (ip), vehicle: saline
[13] = dose: 100.0 mg/kg/injection, schedule: Q01DX009 (ip), vehicle: saline
[14] = dose: 100.0 mg/kg/injection, schedule: Q04DX003 (ip), vehicle: saline
[15] = dose: 100.0 mg/kg/injection, schedule: Q04DX003 (ip), vehicle: saline with Tween-80
[16] = dose: 200.0 mg/kg/injection, schedule: Q04DX003 (ip), vehicle: saline with Tween-80
[17] = dose: 3.13 mg/kg/injection, schedule: Q01DX001 (ip), vehicle: saline with Tween-80
[18] = dose: 6.25 mg/kg/injection, schedule: Q01DX001 (ip), vehicle: saline with Tween-80

CC(=O)OCC(Br)C(Br)COC(C)=O (centres undefined)
T/C [1]: 109 % of control | T/C [2]: 109 % of control | T/C (dose: 400.0 mg/kg/injection, schedule: Q01DX009 (ip), vehicle: saline with Tween-80): 109 % of control

CN(C)c1ccc(C(=O)c2ccccc2)cc1
T/C [3]: 104 % of control | T/C (dose: 50.0 mg/kg/injection, schedule: Q01DX009 (ip), vehicle: Klucel (hydroxypropylcellulose) (HPC)): 90 % of control | T/C [4]: 95 % of control

Cc1cc(C)c(N)c(Br)c1
T/C (dose: 12.5 mg/kg/injection, schedule: Q01DX009 (ip), vehicle: other): 90 % of control | T/C (dose: 25.0 mg/kg/injection, schedule: Q01DX009 (ip), vehicle: other): 90 % of control | T/C [5]: 114 % of control | T/C [6]: 100 % of control

CC(C)(C)OC(=O)NNC(c1ccccc1)c1ccccc1
T/C (dose: 50.0 mg/kg/injection, schedule: Q01DX001 (ip), vehicle: Klucel (hydroxypropylcellulose) (HPC)): 91 % of control | T/C [5]: 105 % of control | T/C (dose: 100.0 mg/kg/injection, schedule: Q01DX001 (ip), vehicle: Klucel (hydroxypropylcellulose) (HPC)): 91 % of control | T/C (dose: 100.0 mg/kg/injection, schedule: Q01DX009 (ip), vehicle: other): 110 % of control | T/C [7]: 105 % of control | T/C (dose: 200.0 mg/kg/injection, schedule: Q01DX001 (ip), vehicle: Klucel (hydroxypropylcellulose) (HPC)): 95 % of control | T/C (dose: 200.0 mg/kg/injection, schedule: Q01DX009 (ip), vehicle: other): 100 % of control | T/C [8]: 110 % of control | T/C [9]: 105 % of control

CCOc1ccc2nc(/C=C\c3cc4c5c(c3)CCCN5CCC4)ccc2c1
T/C [4]: 90 % of control | T/C [7]: 100 % of control | T/C (dose: 200.0 mg/kg/injection, schedule: Q01DX009 (ip), vehicle: Klucel (hydroxypropylcellulose) (HPC)): 109 % of control | T/C [8]: 100 % of control | T/C (dose: 400.0 mg/kg/injection, schedule: Q01DX009 (ip), vehicle: Klucel (hydroxypropylcellulose) (HPC)): 104 % of control | T/C [9]: 95 % of control

CCCCCCNc1c(F)c(C#N)c(F)c(F)c1C#N
T/C [10]: 103 % of control | T/C [1]: 93 % of control | T/C [2]: 110 % of control

C1CNCC[N-]1.C1CNCC[N-]1.[Cl][Pt+2]([Cl])([Cl])[Cl]
T/C (dose: 3.12 mg/kg/injection, schedule: Q04DX003 (ip), vehicle: saline): 106 % of control and 115 % of control | T/C (dose: 6.25 mg/kg/injection, schedule: Q01DX009 (ip), vehicle: saline): 106 % of control | T/C (dose: 6.25 mg/kg/injection, schedule: Q04DX003 (ip), vehicle: saline): 100 % of control and 115 % of control | T/C (dose: 12.5 mg/kg/injection, schedule: Q01DX009 (ip), vehicle: Klucel (hydroxypropylcellulose) (HPC)): 108 % of control | T/C (dose: 12.5 mg/kg/injection, schedule: Q04DX003 (ip), vehicle: saline): 93 % of control and 98 % of control and 100 % of control | T/C [3]: 120 % of control | T/C [11]: 108 % of control

O=C1/C(=C\c2ccccc2)C(Br)c2ccccc21 (centres undefined)
T/C (dose: 1.56 mg/kg/injection, schedule: Q01DX009 (ip), vehicle: water): 87 % of control | T/C (dose: 3.12 mg/kg/injection, schedule: Q01DX009 (ip), vehicle: water): 108 % of control | T/C (dose: 6.25 mg/kg/injection, schedule: Q01DX009 (ip), vehicle: water): 108 % of control | T/C (dose: 6.25 mg/kg/injection, schedule: Q04DX003 (ip), vehicle: water): 100 % of control | T/C (dose: 12.5 mg/kg/injection, schedule: Q01DX009 (ip), vehicle: water): 110 % of control | T/C (dose: 12.5 mg/kg/injection, schedule: Q04DX003 (ip), vehicle: water): 105 % of control | T/C (dose: 25.0 mg/kg/injection, schedule: Q01DX009 (ip), vehicle: water): 110 % of control | T/C (dose: 25.0 mg/kg/injection, schedule: Q04DX003 (ip), vehicle: water): 105 % of control | T/C (dose: 50.0 mg/kg/injection, schedule: Q04DX003 (ip), vehicle: water): 91 % of control

COc1ccc2c(c[n+](C)c3c4cc5c(cc4ccc23)OCO5)c1OC
T/C (dose: 5.0 mg/kg/injection, schedule: Q01DX010 (ip), vehicle: saline): 90 % of control | T/C (dose: 10.0 mg/kg/injection, schedule: Q01DX010 (ip), vehicle: saline): 100 % of control

c1ccc(CNc2ncncc2-c2ccccc2)cc1
T/C [10]: 98 % of control | T/C [1]: 105 % of control | T/C [2]: 99 % of control

NC(N)=NC(N)=Nc1ccc2ccc3cccc4ccc1c2c34
T/C (dose: 25.0 mg/kg/injection, schedule: Q04DX003 (ip), vehicle: saline + alcohol): 98 % of control | T/C (dose: 50.0 mg/kg/injection, schedule: Q04DX003 (ip), vehicle: saline + alcohol): 106 % of control

O=C(O)CCCCCCCC(=O)c1ccccc1
T/C (dose: 50.0 mg/kg/injection, schedule: Q04DX003 (ip), vehicle: saline sonified): 100 % of control | T/C (dose: 100.0 mg/kg/injection, schedule: Q04DX003 (ip), vehicle: saline sonified): 104 % of control | T/C (dose: 200.0 mg/kg/injection, schedule: Q04DX003 (ip), vehicle: saline sonified): 95 % of control

CC(C)(N)COS(=O)(=O)O
T/C [12]: 100 % of control | T/C [13]: 90 % of control and 100 % of control | T/C [14]: 100 % of control | T/C (dose: 200.0 mg/kg/injection, schedule: Q01DX009 (ip), vehicle: saline): 95 % of control | T/C (dose: 200.0 mg/kg/injection, schedule: Q04DX003 (ip), vehicle: saline): 100 % of control | T/C (dose: 400.0 mg/kg/injection, schedule: Q01DX009 (ip), vehicle: saline): 100 % of control | T/C (dose: 400.0 mg/kg/injection, schedule: Q04DX003 (ip), vehicle: saline): 100 % of control

CCN(CC)CCCC(C)Nc1ncnc(N)c1[N+](=O)[O-] (centres undefined)
T/C (dose: 25.0 mg/kg/injection, schedule: Q01DX009 (ip), vehicle: saline): 120 % of control | T/C [11]: 90 % of control | T/C [12]: 120 % of control | T/C (dose: 50.0 mg/kg/injection, schedule: Q04DX003 (ip), vehicle: saline): 95 % of control | T/C [13]: 90 % of control | T/C [14]: 100 % of control

COC(=O)/C(C#N)=C\c1ccccc1
T/C (dose: 50.0 mg/kg/injection, schedule: Q04DX003 (ip), vehicle: saline with Tween-80): 104 % of control | T/C [15]: 109 % of control

COC(OC)c1nc(SC)[nH]c(=O)c1C[N+](C)(C)C
T/C [15]: 100 % of control | T/C [16]: 100 % of control | T/C (dose: 400.0 mg/kg/injection, schedule: Q04DX003 (ip), vehicle: saline with Tween-80): 113 % of control

C[N+](C)(Cn1nc(Cl)c2cc([N+](=O)[O-])ccc21)Cn1nc(Cl)c2cc([N+](=O)[O-])ccc21
T/C [15]: 115 % of control | T/C [16]: 153 % of control

OCCNc1ccc(I)cc1
T/C [6]: 113 % of control | T/C (dose: 200.0 mg/kg/injection, schedule: Q04DX003 (ip), vehicle: other): 122 % of control | T/C (dose: 400.0 mg/kg/injection, schedule: Q04DX003 (ip), vehicle: other): 104 % of control

CSC/C(=N\Nc1ccc([N+](=O)[O-])cc1[N+](=O)[O-])c1ccccc1
T/C (dose: 1.56 mg/kg/injection, schedule: Q01DX001 (ip), vehicle: saline with Tween-80): 100 % of control | T/C [17]: 104 % of control | T/C [18]: 114 % of control

CSc1c(C)[nH]c2c(C)cccc12
T/C (dose: 50.0 mg/kg/injection, schedule: Q04DX002 (ip), vehicle: saline with Tween-80): 100 % of control | T/C (dose: 100.0 mg/kg/injection, schedule: Q04DX002 (ip), vehicle: saline with Tween-80): 100 % of control | T/C (dose: 200.0 mg/kg/injection, schedule: Q04DX002 (ip), vehicle: saline with Tween-80): 105 % of control

O=[N+]([O-])/C=C\c1cc2c3c(c1)CCCN3CCC2
T/C [17]: 100 % of control | T/C [18]: 100 % of control | T/C (dose: 12.5 mg/kg/injection, schedule: Q01DX001 (ip), vehicle: saline with Tween-80): 104 % of control

Nc1ncnc2c1ncn2C1CC(O)C(CO)O1 (centres undefined)
T/C (dose: 440.0 mg/kg/injection, schedule: Q01DX009 (ip), vehicle: saline with Tween-80): 93 % of control | T/C (dose: 660.0 mg/kg/injection, schedule: Q01DX009 (ip), vehicle: saline with Tween-80): 93 % of control | T/C (dose: 1000.0 mg/kg/injection, schedule: Q01DX009 (ip), vehicle: saline with Tween-80): 105 % of control
